Measurements published in patent publication US9827212B2, “Compositions and methods for treating asthma and other lung diseases” (THE TRUSTEES OF THE UNIVERSITY OF PENNSYLVANIA, priority 2010, dated 2017).
Where two headings read alike, the source gives them in different places.

Tests used:
HDAC = details: TSA 0.6 mg/kg i.p.
Protocol: HDAC activity was measured as described previously (Trivedi et al. 2007). […] 50 μg of total extract was incubated with HDAC assay substrate and incubated at 30° C. for 60 min. After the addition of diluted activator reagent, samples were incubated at room temperature for 15 min, and readings were taken by fluorescent microplate reader at an excitation of 360 nm and emission of 450 nm. A standard curve was performed according to the manufacturer's protocol.

[1] = system: naïve mice challenged with methacholine; assay: Invasive lung function (FlexiVent), methacholine challenge, naïve mice; type: in vivo; details: dexamethasone 2.5 mg/kg i.p.
Protocol: (§1) Lung resistance, compliance, elastance, tissue damping, tissue elastance, and airway resistance were recorded using the FlexiVent system (SCIREQ Scientific Respiratory Equipment Inc). The FlexiVent System Overview is shown in FIG. 1B: FlexiVent is a modular, multi-functional device that performs both mechanical ventilation and detailed measurements of respiratory mechanics in subjects.
(§2) The mice were anesthetized by an I.P. injection of a Ketamine (100 mg/kg) and Xylazine (20 mg/kg) mixture. After anesthesia, a half centimeter incision was made from the rostal to caudal direction; the flap of skin was retracted and the connective tissue was dissected away, and the trachea was exposed. The trachea was then cannulated between the second and third cartilage rings with a blunt-end stub adapter. The cannula was secured with suture. The mice were next connected to the Flexivent system. All spontaneous respirations were stopped with an intramuscular injection of Pancuronium Bromide (3 mg/kg) and the mice were then mechanically ventilated at respiratory rate of 140 beats/per minute with 0.25 ml of tidal volume. The Flexivent system then briefly interrupted the mechanical ventilation to apply a test signal, or perturbation to measure the respiratory mechanics. The respiratory mechanics were then calculated from the data collected while the perturbation was applied. […] At the end of testing the mice were disconnected and processed for multiple organ, blood, and fluid removal. The mice were first exsanguinated through the optical artery. Then bronchoalveolar lavage was performed through the tracheal canula. Finally, the peritoneal and the thoracic cavity were opened, and the lungs were removed for protein and histological processing.

[2] = system: mice sensitized and challenged with Aspergillus fumigatus (AF); assay: Invasive lung function (FlexiVent), methacholine challenge, Aspergillus fumigatus sensitized and challenged mice; type: in vivo; details: TSA 0.6 mg/kg i.p., dexamethasone 2.5 mg/kg i.p.
Protocol: (§3) Mice were sensitized by intraperitoneal (I.P.) injections of 20 μg allergen, a protein extract of the ubiquitous, airborn fungus, Aspergillus fumigatus (AF), (Bayer Pharmaceuticals), in 100 μl PBS solution containing 2 mg of alum (Imject Alum, Pierce) on days 0 and 14 and challenged on days 25, 26, and 27 with 30 μl of Af extract in PBS (25 μg) intranasally (i.n.) (FIG. 1).
as §1, §2

[3] = system: inflammatory cells in bronchoalveolar lavage (BAL) fluid; assay: BAL cell count and differential; type: in vivo, mice
Protocol: as §3
After functional measurements were completed, lungs were lavaged with 1-ml aliquots of sterile saline through the tracheal cannula. After centrifuging (500 g for 10 min at 4° C.) the cell pellet was resuspended in RPMI. Differential cell counts were made from cytospin preparations as described (Elwood et al. 1991). Cells were identified as macrophages, eosinophils, neutrophils, and lymphocytes by standard morphology and at least 300 cells were counted under ×400 magnification. The percentage and absolute numbers of each cell type were then calculated. The supernatants were harvested and stored at −20° C. for further analysis.

IL-4 = IL-4 level in BAL fluid (ELISA); type: in vivo, mice
Protocol: as §3
(§4) The levels of cytokine secreted into the supernatants of PCLS and bronchoalveolar lavage (BAL) fluid samples were determined by ELISA according to standard protocols as previously described (Banerjee et al. 2008). The cytokine amounts were calculated from the standard curves in each plate. The limits of detection were 5 pg/ml for IL-4 and IL-6 and RANTES standards. Recombinant mouse IL-4 and IL-6 and human RANTES were used as controls.

IL-6 [4] = assay: IL-6 level in BAL fluid (ELISA); type: in vivo, mice
Protocol: as §3, §4

IL-6 [5] = assay: IL-6 secretion from human precision cut lung slices (PCLS); type: cell-based; details: for inhibition of IL-6 secretion from PCLS / inhibition at 0.05 µM: TSA 10 μM or budesonide 50 nM 2 h prior; for inhibition at 0.05 µM: Homo sapiens
Protocol: (§5) FIG. 11. […] Secretion of IL-6 and RANTES was analyzed as described under materials and methods. Values shown are mean+/− s.d. from three samples.
as §4
(§6) Human lung slice preparation. Human PCLS were prepared as previously described (Cooper et al. 2008). Briefly, healthy whole human lungs were received from the NDRI, and the smallest lobe was dissected out and its main bronchus identified. The lobe was inflated using a 2% (wt/vol) low melting point agarose solution. Once the agarose had set, the lobe was sectioned, and cores of 8-mm diameter were made. The cores that contained a small airway by visual inspection were sliced at a thickness of 250 μm (Krumdieck Tissue Slicer; model no. MD4000; Alabama Research and Development) and collected in wells containing supplemented Ham's F-12 medium. Suitable airways (≦1-mm diameter) on slices were selected on the basis of the following criteria: presence of a full smooth muscle wall (i.e., cut perpendicular to direction of airway); presence of beating cilia to eliminate blood vessels; and unshared muscle walls at airway branch points to eliminate possible counteracting contractile forces. […] Adjacent slices containing contiguous segments of the same airway were paired to act as control to the variable tested and incubated at 37° C. on a rotating platform in a humidified air-CO2 (95-5%) incubator. Sections were placed in fresh media every 2-3 h during the remainder of day 1 and all of day 2 to rid the slice and media of agarose and endogenous substances released that could variably confound the production of inflammatory mediators and/or alter airway tone.
(§7) Three airways from each donor were used per condition; n values indicate the number of donors. Data are expressed as means± SEM. Statistical difference was shown by using a nonpaired t test.

RANTES = RANTES secretion from human precision cut lung slices (PCLS); type: cell-based; details: for inhibition of RANTES secretion from PCLS: TSA 10 μM or budesonide 50 nM 2 h prior
Protocol: as §5, §4, §6, §7

[6] = mice sensitized and challenged with Aspergillus
[7] = unsensitized and unchallenged (naïve) mice
[8] = TNFα (10 ng/mL) and IFNγ (10,000 IU/mL) stimulated

CC(/C=C/C(=O)NO)=C\[C@@H](C)C(=O)c1ccc(N(C)C)cc1 [TSA, Trichostatin A]
HDAC activity in lung tissue (HDAC; [6]): effectively inhibited HDAC activity
HDAC activity in lung tissue (HDAC; naïve mice): effectively inhibited HDAC activity
dynamic compliance, maximum inhibition by methacholine ([1]; TSA 0.6 mg/kg i.p.): 0.032 mL/cmH2O
half maximal inhibitory concentration of methacholine on dynamic compliance ([1]; TSA 0.6 mg/kg i.p.): 2.5 mg/mL
dynamic compliance, maximum inhibition by methacholine [2]: 0.008 mL/cmH2O
half maximal effective concentration of methacholine (airway resistance) [2]: 20 mg/mL
half maximal inhibitory concentration of methacholine on dynamic compliance [2]: 5 mg/mL
BAL eosinophil counts ([3]; Aspergillus challenged mice, TSA 0.6 mg/kg i.p., dexamethasone 2.5 mg/kg i.p.): no effect
total cell counts in BAL ([3]; Aspergillus sensitized and challenged mice, TSA 0.6 mg/kg i.p., dexamethasone 2.5 mg/kg i.p.): no effect
percentages of inflammatory cells in the BAL ([3]; after allergen sensitization and challenge): little effect
total cell counts in BAL ([3]; naïve mice, TSA 0.6 mg/kg i.p., dexamethasone 2.5 mg/kg i.p.): no significant difference in cell counts
BAL macrophages, neutrophils, or lymphocytes ([3]; untreated mice or Aspergillus sensitized and challenged mice): no significant differences
IL-4 in BAL (IL-4; [6]): little effect on cytokine secretion
IL-4 in BAL (IL-4; [7]): did not increase
IL-6 in BAL (IL-6 [4]; [6]): little effect on cytokine secretion
IL-6 in BAL (IL-6 [4]; [7]): did not increase
inhibition of IL-6 secretion from PCLS (IL-6 [5]; [8]): 18.8%+/−6.8%
inhibition of IL-6 secretion from PCLS (IL-6 [5]; TNFα (10 ng/mL) stimulated): 30.2%+/−12.5%
basal IL-6 secretion from PCLS (IL-6 [5]; unstimulated, TSA 10 μM): little effect on basal IL-6 secretion
inhibition of RANTES secretion from PCLS (RANTES; TNFα (10 ng/mL) and IFNγ (10,000 IU/mL) induced): 55.1%+/−7.5%
inhibition of RANTES secretion from PCLS (RANTES; TNFα (10 ng/mL) induced): 50%+/−23%
basal RANTES secretion from PCLS (RANTES; unstimulated, TSA 10 μM): did not induce basal RANTES secretion

CCCC1O[C@@H]2C[C@H]3[C@@H]4CCC5=CC(=O)C=C[C@]5(C)[C@H]4[C@@H](O)C[C@]3(C)[C@]2(C(=O)CO)O1 (some centres unmarked) [budesonide]
inhibition at 0.05 µM (IL-6 [5]; [8]): 52.7%
inhibition at 0.05 µM (IL-6 [5]; TNFα (10 ng/mL) stimulated): 44.4%
inhibition at 0.05 µM (RANTES; Homo sapiens): 69%

C[C@@H]1C[C@H]2[C@@H]3CCC4=CC(=O)C=C[C@]4(C)[C@@]3(F)[C@@H](O)C[C@]2(C)[C@@]1(O)C(=O)CO [dexamethasone]
Emax of airway (lung) resistance in response to methacholine ([1]; TSA 0.6 mg/kg i.p. in DMSO): 2.3 cmH2O/mL
dynamic compliance, maximum inhibition by methacholine ([1]; TSA 0.6 mg/kg i.p.): 0.010 mL/cmH2O
Emax of airway resistance in response to methacholine [2]: 6 cmH2O/mL
dynamic compliance, maximum inhibition by methacholine [2]: 0.005 mL/cmH2O
